CC50, EC50 and EC90 data for 1 compound are collected here from patent US20250144066A1, “Prevention and Treatment of Parasitic Infections” (priority 2017, published 2025).

A short description of data set [1]: Neutral Red toxicity in Vero 76 cells, secondary (Zika-094). To be noted: monkey.
A short description of data set [2]: NR toxicity in RAW264.7 cells (17-09). Particulars: mouse.
Data set [3] deals with Zika Virus. As to the kind of experiment: Zika prevention, CPE inhibition (Neutral Red), Huh7, 24 h pre-incubation (Zika-138). The format is cell-based. To be noted: Zika virus, Huh-7, Neutral Red (Cytopathic effect), pre-incubated 24 hours prior to infection, read-out: EC50.
A further data set can be described thus: in vitro. To be noted: African green monkey.
For data set [4], the system named is Zika Virus. As to the kind of experiment: Zika virus CPE inhibition (Neutral Red), Vero 76, secondary (Zika-094). The format is cell-based. To be noted: Neutral Red (Cytopathic effect), MR766.
The subject of data set [5] is Zika Virus. Put plainly: Zika prevention, virus yield reduction (VYR), Vero 76, 24 h pre-incubation (Zika-138). The format is cell-based. To be noted: Zika virus, Visual (Virus yield reduction), pre-incubated 24 hours prior to infection, read-out: EC90.

Structures are written as SMILES. ≈ marks a conversion by molar mass, not a printed value.

Regarding `COc1c(C)c2c(c(O)c1C/C=C(\C)CCC(=O)O)C(=O)OC2` [EP1601, 6-(4-hydroxy-6-methoxy-7-methyl-3-oxo-1,3-dihydroisobenzofuran-5-yl)-4-methyl-hex-4-enoic acid], the CC50 came out at 2.3 µg/mL (≈ 7.18 µM) in data set [1], 32 µM in data set [2] and 26 µg/mL (≈ 81.2 µM) in “in vitro”. Also, the EC50 with Zika Virus [3] stood at 0.55 µg/mL (≈ 1.72 µM); in the data set with Zika Virus [4], 0.14 µg/mL (≈ 0.437 µM). Besides, the EC90 in the data set on Zika Virus [5] worked out at 10 µg/mL (≈ 31.2 µM).
